# According to publication doi:10.1101/2020.04.28.066902v2 (bioRxiv, 2020):
# “Also recorded” adds a separate entry of the source.
# Experiment: Equilibrium peptide uptake in human OA cartilage explants
# Assay type: in vitro ADME
sequence,measurement,setting,value
RKKRRQRRR [TAT-PTD],partitioning coefficient with 500 mM NaCl vs untreated cartilage,"500 mM NaCl added to the PBS, p=0.3, n=24",not
same,partitioning coefficient after trypsin treatment vs untreated cartilage,"cartilage degraded in 5 mM trypsin for 24 hours prior to uptake, p=0.045, n=24",reduced; also recorded: decreased partitioning coefficients; also recorded: decreased uptake
